# Measured values as given in PMC10307805, “DprE2 is a molecular target of the anti-tubercular nitroimidazole compounds pretomanid and delamanid” (Nature Communications, 2023).
# How the values were obtained:
# Format in all cases: biochemical
# [1] = biological target: DprE1 (decaprenylphosphoryl-β-D-ribose oxidase) (Mycobacterium tuberculosis, UniProt P9WJF1); assay: resazurin reduction fluorescence assay with GGPR (also […] on Mt-DprE1-DprE2 complex)
# [2] = biological target: T1, DprE2 (decaprenylphosphoryl-2-keto-β-D-erythro-pentose reductase) (Mycobacterium tuberculosis, UniProt P9WGS9); assay: […]; also IC50 […] and radiolabeled DPR epimerization TLC
# T1 sequence (P9WGS9 whole entry, looked up): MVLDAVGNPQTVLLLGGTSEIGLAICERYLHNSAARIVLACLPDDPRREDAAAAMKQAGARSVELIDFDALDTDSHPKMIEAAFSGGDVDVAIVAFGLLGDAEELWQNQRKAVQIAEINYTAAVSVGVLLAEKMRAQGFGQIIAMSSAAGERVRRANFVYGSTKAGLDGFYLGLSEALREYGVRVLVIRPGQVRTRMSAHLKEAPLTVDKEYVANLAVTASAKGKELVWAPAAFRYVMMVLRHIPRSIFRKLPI
# [3] = biological target: T1, DprE2 (decaprenylphosphoryl-2-keto-β-D-erythro-pentose reductase)
# [4] = biological target: T2, Ddn (deazaflavin F420-dependent nitroreductase) (Mycobacterium tuberculosis, UniProt P9WP15)
# T2 construct: recombinant Ddn, SUMO tag removed
# T2 sequence (P9WP15 whole entry): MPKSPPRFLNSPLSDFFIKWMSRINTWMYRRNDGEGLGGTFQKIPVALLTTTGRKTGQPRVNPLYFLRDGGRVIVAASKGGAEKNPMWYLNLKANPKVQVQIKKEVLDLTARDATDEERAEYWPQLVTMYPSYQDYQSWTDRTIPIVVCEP
# Chain of DprE1 (decaprenylphosphoryl-β-D-ribose oxidase) (P9WJF1 whole entry): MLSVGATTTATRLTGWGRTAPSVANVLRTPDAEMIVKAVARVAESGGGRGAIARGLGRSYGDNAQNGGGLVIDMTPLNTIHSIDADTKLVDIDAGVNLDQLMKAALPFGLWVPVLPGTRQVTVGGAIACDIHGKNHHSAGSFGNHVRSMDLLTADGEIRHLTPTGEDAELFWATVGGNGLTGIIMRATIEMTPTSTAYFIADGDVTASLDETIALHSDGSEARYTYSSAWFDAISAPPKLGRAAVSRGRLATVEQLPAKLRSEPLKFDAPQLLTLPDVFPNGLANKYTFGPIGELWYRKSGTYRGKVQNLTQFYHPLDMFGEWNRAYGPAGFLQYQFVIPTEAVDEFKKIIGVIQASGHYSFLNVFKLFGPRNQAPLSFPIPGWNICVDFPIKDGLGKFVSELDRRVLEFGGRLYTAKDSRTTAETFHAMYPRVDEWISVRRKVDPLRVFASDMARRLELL
molecule,measurement,setting,value
BTZ,IC50,[1],11.8 ± 0.7 µM
Ddn-activated pretomanid,Ki,[2],1.5 ± 0.4 µM
NC(=O)C1=CN([C@@H]2O[C@H](COP(=O)(O)OP(=O)(O)OC[C@H]3O[C@@H](n4cnc5c(N)ncnc54)[C@H](OP(=O)(O)O)[C@@H]3O)[C@@H](O)[C@H]2O)C=CC1 [NADPH],NADPH oxidation fluorescence assay with NADPH titration,[3],"DprE2 activity was monitored through a change in fluorescence due to the oxidation of the DprE2 cofactor, NADPH"
O=[N+]([O-])c1cn2c(n1)OC[C@@H](OCc1ccc(OC(F)(F)F)cc1)C2 [pretomanid],"pro-drug activation by purified Ddn with Fgd1/F420, read out by DprE2 inhibition",[4],"upon activation of the pretomanid by Ddn, there was a dose-dependent reduction in Mt-DprE2 activity"
